Test results published in publication PMC6718736, “Validation of in vitro methods for human cytochrome P450 enzyme induction: Outcome of a multi-laboratory study” (Toxicology in Vitro, 2019).
Like-named read-outs stand apart in the source and are kept apart here.

What was measured:
CYP = CYP isoforms induced; ref Abadie et al. (2009), Richert et al. (2010), Preissner et al. (2010), Hoffmann et al. (2014); cited from earlier work
PHH = test: Cytotoxicity assay (resazurin) in PHH, 72 hours; assay type: cell-based, human; settings: viability reduction <20%
Procedure: (§1) Potential cytotoxicity of the validation set chemicals for PHH and HepaRG cells was determined starting from the highest soluble concentration, followed by a 1:1 or 1:3 dilution for PHH and HepaRG cells, respectively. The incubation time reflected the conditions used for the induction assays (72 hours and 48 hours of incubation for PHH and HepaRG cells, respectively). The cytotoxicity assay was based on the conversion of redox dye resazurin to fluorescent resorufin by living cells. Non-viable cells, without metabolic capacity, yield no fluorimetry signal.
(§2) Results were expressed as fractional survival (FS %) with respect to untreated controls and were calculated based on measured relative fluorescent units (RFU), corrected for the background signal: %FS=RFUtreated cells−meanRFUbackground/RFUuntreated cells−meanRFUbackgroundx100
(§3) Cytotoxicity was evaluated from the dose-response curve, where the mean FS (%) of three technical replicates was plotted versus the corresponding concentration.
(§4) The SOP acceptance criteria required a cell viability of 50-70 % for doxorubicin (8 μM, HepaRG cells) and ≤70 % for chlorpromazine (25 μM, PHH), the cytotoxicity reference items. The highest concentration with viability reduction <20% (PHH) or <10% (HepaRG) was eligible as starting concentration for the induction assay.

[1] = Solubility by nephelometry (EURL ECVAM); assay type: physicochemical; settings: for HepaRG medium stability / PHH medium stability: ECVAM nephelometry, ^2 = solubility limit
Text: In addition to the visual inspection performed by the validation laboratories as described in the SOP, EURL ECVAM introduced nephelometry for systematic solubility determination of the 13 validation set chemicals. Nephelometry uses a laser beam and the principle of Tyndall effect light scatter to detect turbidity due to insolubility. The nephelometer method used formazin as reference item (1, 5, 10 and 20 nephelometric turbidity units (NTU)) to calculate the relative turbidity (RTU) of the validation set of chemicals. To the naked eye, 20 NTU is perceptible, while the nephelometer was sensitive to 5 NTU, with 1 NTU equivalent to background (solvent/medium blank).

CYP1A2 [2] = settings: cited from earlier work; for CYP induction in vivo literature reference: CYP1A2: human in vivo, CYP named without remark = induced, ref references in the cell, Washington University database, Hoffmann et al. (2014), Pelkonen et al. (2008), Hukkanen et al. (2012)
HepaRG cells = test: Cytotoxicity assay (resazurin) in HepaRG cells, 48 hours; assay type: cell-based, human; settings: viability reduction <10%
Procedure: as §1, §2, §3, §4

[3] = Solubility by visual inspection (DMSO stock solution and assay medium); assay type: physicochemical; settings: assay medium
Procedure: The SOPs relied on visual inspection for solubility observation. […] The absence of precipitation in the medium was checked pre- and post-incubation (24 hours) by centrifugation of the sample and observation of any precipitation (pellet residue).

CYP3A4 [4] = tested on: CYP3A4
[5] = cited from earlier work
CYP1A2 [6] = test: CYP1A2 enzyme induction assay in cryopreserved primary human hepatocytes (PHH); assay type: in vitro ADME; settings: for Assigned classification CYP1A2: PHH
CYP2B6 = CYP2B6 enzyme induction assay in cryopreserved primary human hepatocytes (PHH); assay type: in vitro ADME; settings: for Assigned classification CYP2B6: PHH
CYP3A4 [7] = settings: in vivo; cited from earlier work

In the case of OCc1c[nH]c2ccccc12 [Indole-3-carbinol], the “CYP induction in vitro (human hepatocytes)” value (CYP) is given as “CYP1A2”, the “highest soluble non cytotoxic concentration used for the subsequent induction assay, PHH” value (PHH) is given as “insoluble (excluded)” and the “nephelometry finding in assay medium” value ([1]; 40 μg/ml, the two media) is given as “insoluble suspensions”. For the same molecule, the HepaRG medium stability [1] was 10^2 μg/mL, the PHH medium stability [1] was 10^2 μg/mL and the “CYP induction in vivo literature reference: CYP1A2” value (CYP1A2 [2]) was “CYP 1A2 ([Reed et al., 2005]) CYP2B6/CYP3A4 NO studies”. The “highest soluble non cytotoxic concentration used for the subsequent induction assay, HepaRG” value (HepaRG cells) was “insoluble (excluded)”, the HepaRG medium stability ([3]; Lab 1, visual observation) was 5 µg/mL and the HepaRG medium stability ([3]; Lab 2, visual observation) was 10 µg/mL. For the same molecule, the HepaRG medium stability ([3]; Lab 3, visual observation) was 10 µg/mL, the PHH medium stability ([3]; Lab 4, visual observation) was 10 µg/mL and the PHH medium stability ([3]; Lab 5, visual observation) was 20 µg/mL. It also gave a PHH medium stability ([3]; Lab 6, visual observation) of 20 µg/mL.

In the case of CO[C@H]1/C=C/O[C@@]2(C)Oc3c(C)c(O)c4c(c3C2=O)C2=NC3(CCN(CC(C)C)CC3)NC2=C(NC(=O)/C(C)=C\C=C\[C@H](C)[C@H](O)[C@@H](C)[C@@H](O)[C@@H](C)[C@H](OC(C)=O)[C@@H]1C)C4=O [Rifabutin], the “CYP induction in vitro (human hepatocytes)” value (CYP) is given as “CYP1A2, CYP3A4”, the Induction in vitro (CYP3A4 [4]) is given as “Yes” and the “Prediction in vivo inducer” value (CYP3A4 [4]) is given as “Yes”. The “Summary predictive capacity, CYP3A4 induction (Y/N)” value (CYP3A4 [4]; hepatocytes) was “Y”, the Cmax/F2 (CYP3A4 [4]; human) was 4.4 and the F2 (CYP3A4 [4]; human) was 0.1 µM. For the same molecule, the Cmax ([5]; human in vivo plasma concentration, normal dose) was 440 nM, the Cmax ([5]; human in vivo, normal dose (Table 10)) was 440 nM and the HepaRG medium stability [1] was 40 µg/mL. For the same molecule, the PHH medium stability [1] was 40 µg/mL, the “Prediction in vivo inducer” value (CYP1A2 [6]; CYP1A2, PHH, Cmax/F2 >0.5 criterion) was “No” and the F2 (CYP1A2 [6]; CYP1A2, PHH, in vitro concentration producing 2-fold induction) was 2.2 to 6.7 µM. For the same molecule, the Induction in vitro (CYP1A2 [6]; CYP1A2, PHH, positive in one donor in each of the three laboratories) was “Yes”, the “Assigned classification CYP1A2” value (CYP1A2 [6]; Lab 1, batch 0 6 A) was 1 and the “Assigned classification CYP1A2” value (CYP1A2 [6]; Lab 1, batch 4 0 8) was 1. The “Assigned classification CYP1A2” value (CYP1A2 [6]; Lab 1, batch 8 0 8) was 0, the “Assigned classification CYP1A2” value (CYP1A2 [6]; Lab 2, batch 0 6 A) was 0 and the “Assigned classification CYP1A2” value (CYP1A2 [6]; Lab 2, batch 4 0 8) was 0. The “Assigned classification CYP1A2” value (CYP1A2 [6]; Lab 2, batch 8 0 8) was 1, the “Assigned classification CYP1A2” value (CYP1A2 [6]; Lab 3, batch 0 6 A) was 1 and the “Assigned classification CYP1A2” value (CYP1A2 [6]; Lab 3, batch 4 0 8) was 0. For the same molecule, the “Assigned classification CYP1A2” value (CYP1A2 [6]; Lab 3, batch 8 0 8) was 0, the Induction in vivo (CYP1A2 [2]; CYP1A2, human, ref Table 1) was “No” and the “CYP induction in vivo literature reference: CYP1A2” value (CYP1A2 [2]) was “CYP1A2 NOT induced ([Gillum et al., 1996]) CYP2B6 NO studies CYP3A4 ([Horita and Doi, 2014]; [Barditch-Crovo et al., 1999])”. The F2 (CYP2B6; CYP2B6, PHH) was 0.29 to 0.87 µM, the Induction in vitro (CYP2B6; CYP2B6, PHH) was “induced CYP2B6 and Yes” and the “Prediction in vivo inducer” value (CYP2B6; CYP2B6, PHH) was “Yes”. The “Assigned classification CYP2B6” value (CYP2B6; Lab 1, batch 0 6 A) was 1, the “Assigned classification CYP2B6” value (CYP2B6; Lab 1, batch 4 0 8) was 0 and the “Assigned classification CYP2B6” value (CYP2B6; Lab 1, batch 8 0 8) was 1. For the same molecule, the “Assigned classification CYP2B6” value (CYP2B6; Lab 2, batch 0 6 A) was 0, the “Assigned classification CYP2B6” value (CYP2B6; Lab 2, batch 4 0 8) was 0 and the “Assigned classification CYP2B6” value (CYP2B6; Lab 2, batch 8 0 8) was 1. For the same molecule, the “Assigned classification CYP2B6” value (CYP2B6; Lab 3, batch 0 6 A) was 1, the “Assigned classification CYP2B6” value (CYP2B6; Lab 3, batch 4 0 8) was 1 and the “Assigned classification CYP2B6” value (CYP2B6; Lab 3, batch 8 0 8) was 1. The “CYP induction in vivo literature reference: CYP3A4” value (CYP3A4 [7]) was “CYP1A2 NOT induced ([Gillum et al., 1996]) CYP2B6 NO studies CYP3A4 ([Horita and Doi, 2014]; [Barditch-Crovo et al., 1999])”, the Induction in vivo (CYP3A4 [7]) was “Yes” and the HepaRG medium stability ([3]; Lab 1, visual observation) was 40 µg/mL. It also gave a HepaRG medium stability ([3]; Lab 2, visual observation) of 20 µg/mL, a HepaRG medium stability ([3]; Lab 3, visual observation) of 40 µg/mL and a PHH medium stability ([3]; Lab 4, visual observation) of 40 µg/mL. It also gave a PHH medium stability ([3]; Lab 5, visual observation) of 40 µg/mL and a PHH medium stability ([3]; Lab 6, visual observation) of 40 µg/mL.
